In patent publication US9376663B2, “GPR15-mediated homing and uses thereof” (New York University, priority 2013, dated 2016):

Legend:
[1] = molecular target: T1, inducible caspase 9 (iCasp9) (Homo sapiens, UniProt P55211+P62942, F37V); details: patients wherein GVHD developed; cited from earlier work
T1 construct: human caspase 9 (fusion partner in the same polypeptide)

[2] = system: homing of T cells to the large intestine lamina propria (LILP); assay: Short-term competitive homing assay; assay type: in vivo, mouse; details: GPR15+ cells treated before transfer, co-transfer with untreated control-transduced cells
Protocol: The coding region of mouse GPR15 was cloned into the MSCV-IRES-Thy1.1 retroviral construct (38). Retroviruses were generated by transient transfection of Phoenix cells. CD4^+ CD62L^highCD44^lowCD25^− Tnaive cells were sorted by FACS Aria IIu (BD Biosciences) and stimulated with 0.25 μg/ml of αCD3ε (145-2c11, ATCC) and 1 μg/ml of αCD28 (37.51, eBiosciences) antibodies cross-linked by plate-bound α-hamster IgG (MP Biochemical) in RPMI-10. At day 1 and day 2 after stimulation, cells were transduced with retrovirus (spinning at 850 g for 2 h with 4 μg/ml of polybrene). CD4^+ Tnaive cells from B6. SJL-Ptprc^aPep3^b/BoyJ (The Jackson Laboratory) were used for transduction of Gpr15 and CD4^+ Tnaive cells from C57BL/6 were used for transduction of empty vector. At day 3, cells were washed and plated again only with 100 U/ml of IL-2. At day 5, live cells were harvested by lymphocyte-M (Cedarlane). The congenic cells were mixed at a 1:1 ratio and 20-30 million mixed cells in total were transferred intravenously into the recipient mice (C57BL/6). Migration of donor cells into each organ was determined at 10 h after transfer (unless specified) by flow cytometry analysis. All donor cells expressed THY1.1 and GPR15-expressing cells and control cells expressed CD45.1 and CD45.2, respectively. […]

GPR15 expression = assay: In vitro stimulation of T cells to examine GFP (GPR15 reporter) induction; assay type: cell-based, mouse; details: various concentration of retinoic acid with IL-2 only, 3 days, CD4+ Tnaive and Tregs from Gpr15gfp/+ Foxp3ires-mrfp mice
Protocol: All T cell cultures were done in RPMI-10. CD4^+ Tnaive (CD62L^hiCD44^loCD25^−mRFP^− GFP^−), Tregs with naive phenotype (CD62L^hiCD44^loCD25^+mRFP^+ GFP^−), Tmemory (CD62L^loCD44^hiCD25^−mRFP^− GFP^−), and Tregs with memory phenotype (CD62L^loCD44^hiCD25^+mRFP^+ GFP^−) were sorted from Gpr15^gfp/+ Foxp3^ires-mrfp mice. Sorted cells were stimulated with 0.25 μg/ml αCD3ε (145-2c11, ATCC) and 1 μg/ml of αCD28 antibodies (37.51, eBiosciences) cross-linked by plate-bound α-hamster IgG in the presence of human IL-2 (100 U/ml) alone, or additionally with IL-21 (10 ng/ml, R&D systems) or IL-6 (20 ng/ml, Peprotech), or IL-27 (20 ng/ml, eBioscience) in the presence of varying concentrations of human TGF-β1 (αTGFβ blocking antibody [R&D systems], or 0, 0.5 ng/ml, or 5 ng/ml TGF-β1 [Peprotech]) for 3 days. The same conditions were used for retinoic acid (Sigma-Aldrich) treatment with IL-2 only.

T1 sequence (P62942+P55211 fused P62942:F37V): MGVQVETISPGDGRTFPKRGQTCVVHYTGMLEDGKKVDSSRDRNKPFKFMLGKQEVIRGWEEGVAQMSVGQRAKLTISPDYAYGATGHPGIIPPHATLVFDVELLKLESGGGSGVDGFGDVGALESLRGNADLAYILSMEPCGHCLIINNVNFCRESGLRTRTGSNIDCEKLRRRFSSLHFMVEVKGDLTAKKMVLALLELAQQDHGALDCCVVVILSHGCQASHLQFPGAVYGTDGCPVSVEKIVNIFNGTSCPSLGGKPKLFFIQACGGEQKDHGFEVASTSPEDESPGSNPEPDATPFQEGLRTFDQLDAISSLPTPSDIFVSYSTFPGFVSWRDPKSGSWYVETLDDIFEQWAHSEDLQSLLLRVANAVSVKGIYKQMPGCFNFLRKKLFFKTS

## CC[C@H](C(=O)N1CCCC[C@H]1C(=O)O[C@H](CCc1ccc(OC)c(OC)c1)c1cccc(OCC(=O)NCCNC(=O)COc2cccc([C@@H](CCc3ccc(OC)c(OC)c3)OC(=O)[C@@H]3CCCCN3C(=O)[C@@H](CC)c3cc(OC)c(OC)c(OC)c3)c2)c1)c1cc(OC)c(OC)c(OC)c1 [AP1903]
[1]
  elimination of the transplanted genetically modified T cells: greater than 90%

## pertussis toxin
[2]
  enrichment of Gpr15-transduced cells in the LILP after treatment of the cells before transfer: no longer enriched in the LILP

## CC1=C(/C=C/C(C)=C/C=C/C(C)=C/C(=O)O)C(C)(C)CCC1 [Retinoic acid]
GPR15 expression
  GPR15 induction (GFP reporter): does not induce GPR15 expression
GPR15 expression; listed as RA
  GPR15 induction (GFP reporter): not induced
